Reference: patent US10947196B2, “Beta adrenergic agonist and methods of using the same” (CURASEN THERAPEUTICS, INC., priority 2019, dated 2021)
Read-outs that look alike come from different tables or passages of the source.

Key:
β1-adrenergic receptor = β1-adrenergic receptor (Homo sapiens (Human), UniProt P08588); assay: cAMP Gs dynamic HTRF assay, β1 expressing CHO cells; format: cell-based
Method: (§1) cAMP homogeneous time-resolved fluorescence (HTRF). Compound efficacy was determined using the cAMP Gs dynamic HTRF assay (Cisbio, catalog #62AM4PEC) largely following the manufacturer's instructions, also detailed below.
(§2) Compound preparation. […] Standard serial dilution curves were 10-point, 5-fold dilutions starting from a highest concentration of 10 μM. […] Assay plates were centrifuged at 500×g for 10 seconds. Compounds and IBMX were prepared at 2× final dose to compensate for addition of cells.
(§3) Cell preparation. 1× stimulation buffer, washing PBS (Dulbecco's phosphate-buffered saline, −Mg −Ca; Caisson Labs, catalog #PBL01), assay PBS (Dulbecco's phosphate-buffered saline, +Mg, +Ca; Caisson Labs, catalog #PBL02) and Versene (0.02% EDTA disodium salt solution in PBS without calcium or magnesium; Caisson Labs, catalog #EDL01) were pre-warmed to 37° C. Cells expressing beta-adrenergic receptor were washed in washing PBS to remove growth medium and then released from the surface by incubating with Versene for 5-10 minutes at 37° C. Cells were harvested using assay PBS, counted manually by hemocytometer or by an automated cell counter, pelleted by centrifugation (200×g, 5 minutes) and resuspended in 37° C. 1× stimulation buffer to a final density of 1.5×10^6 cells/mL. 5 μL of the suspended cell solution (7500 cell total) were added to all wells of the 384 well assay plate, the assay plate was covered with an Axygen® plate seal (Corning PCR-SP) and incubated in a humidified 37° C. environment supplemented with 5% CO2 for 30 minutes.
(§4) HTRF reagent addition, reading and data analysis. After 30 minutes of cell stimulation with test compound, the assay plates were centrifuged at 500×g for 10 seconds, and incubation was stopped with the addition of 5 μL cAMP-D2 acceptor, diluted 1:21 in detection and lysis buffer 2 (Cisbio 62CL2FDF) was added to all cells. Subsequently, 5 μL Anti-cAMP-Eu Donor, diluted 1:21 in detection and lysis buffer 2, was added to cells. Plates were sealed and reactions gently ‘vortexed’ at 900 rpm on a Heidolph Titramax 1000 for at least 30 minutes at room temperature. Plates were centrifuged again at 500×g for 10 seconds, and HTRF was measured using a Tecan Spark plate reader at 50 flashes per well. […] Potency estimates (EC50) were derived from the four-parameter nonlinear regression of the concentration-effect curve and an estimate of relative efficacy was determined by comparing the magnitude of the test compound HTRF signal window (min−max dose) with the signal window of the full agonist control, isoproterenol.

β2 adrenergic receptor = β2 adrenergic receptor (Homo sapiens (Human), UniProt P07550); assay: cAMP Gs dynamic HTRF assay, β2 expressing CHO cells; format: cell-based
Method: as §1, §2, §3, §4

[1] = B1-AR, CHO-K cells, read-out: Average EC50 [Receptor subtype: B1-AR, Cell type: CHO-K]
[2] = B2-AR, CHO-K1 (HitHunter), read-out: Average pEC50 [Receptor subtype: B2-AR, Cell type: CHO-K1 (HitHunter)] (converted)
[3] = B2-AR, CHO-K cells, read-out: Average EC50 [Receptor subtype: B2-AR, Cell type: CHO-K]
[4] = B1-AR, CHO-K1 (HitHunter), read-out: Average pEC50 [Receptor subtype: B1-AR, Cell type: CHO-K1 (HitHunter)] (converted)

Chain of β2 adrenergic receptor (P07550 whole entry, species assumed): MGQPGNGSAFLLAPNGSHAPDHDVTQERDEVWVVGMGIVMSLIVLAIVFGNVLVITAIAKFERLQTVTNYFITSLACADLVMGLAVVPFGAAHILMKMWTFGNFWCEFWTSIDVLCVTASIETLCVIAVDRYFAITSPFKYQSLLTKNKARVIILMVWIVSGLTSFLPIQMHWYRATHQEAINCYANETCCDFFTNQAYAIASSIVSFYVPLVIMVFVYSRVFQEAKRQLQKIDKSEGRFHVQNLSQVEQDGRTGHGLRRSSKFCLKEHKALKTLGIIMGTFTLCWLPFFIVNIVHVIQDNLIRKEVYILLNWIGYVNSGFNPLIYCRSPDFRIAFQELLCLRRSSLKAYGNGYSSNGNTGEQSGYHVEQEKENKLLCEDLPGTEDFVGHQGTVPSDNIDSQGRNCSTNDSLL
Chain of β1-adrenergic receptor (P08588 whole entry, species assumed): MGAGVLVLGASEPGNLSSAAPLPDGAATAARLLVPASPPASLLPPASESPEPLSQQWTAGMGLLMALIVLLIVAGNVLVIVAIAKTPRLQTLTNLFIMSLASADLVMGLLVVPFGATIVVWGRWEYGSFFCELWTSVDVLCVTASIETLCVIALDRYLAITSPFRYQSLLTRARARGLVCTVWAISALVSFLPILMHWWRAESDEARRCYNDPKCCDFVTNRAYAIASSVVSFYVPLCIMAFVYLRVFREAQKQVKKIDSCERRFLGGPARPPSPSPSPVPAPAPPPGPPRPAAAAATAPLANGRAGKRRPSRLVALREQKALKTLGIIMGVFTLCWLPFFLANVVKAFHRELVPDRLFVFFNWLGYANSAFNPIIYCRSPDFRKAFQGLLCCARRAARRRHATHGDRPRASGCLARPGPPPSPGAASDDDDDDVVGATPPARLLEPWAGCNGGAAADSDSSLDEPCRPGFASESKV

SMILES | Average pEC50 [Receptor subtype: B1-AR; Cell type: CHO-K1 (HitHunter)] (β1-adrenergic receptor; B1-AR, CHO-K1 (HitHunter)) | EC50 (β1-adrenergic receptor; [1]) | EC50 (β2 adrenergic receptor; [2]) | EC50 (β2 adrenergic receptor; [3]) | EC50 (β1-adrenergic receptor; [4]) | Average pEC50 [Receptor subtype: B2-AR; Cell type: CHO-K1 (HitHunter)] (β2 adrenergic receptor; B2-AR, CHO-K1 (HitHunter)) | EC50 (β1-adrenergic receptor; cAMP HTRF, read-out: β1 EC50) | EC50 (β2 adrenergic receptor; cAMP HTRF, read-out: β2 EC50)
CC(C)(C)NC[C@H](O)c1cccc(C(N)=O)n1 [Compound 03-17] | D (D < 6) | > 1 µM | > 1 µM | > 1 µM | – | – | – | –
CC(C)(C)NC[C@H](O)c1cccc(-c2ccc(F)cc2)n1 [Compound 03-145] | – | 0.01 to 0.1 µM | < 0.01 µM | < 0.01 µM | 0.01 to 0.1 µM | – | – | –
CC(C)(C)NC[C@H](O)c1cccc(N)n1 [Compound 03-98] | – | – | > 1 µM | – | > 1 µM | – | – | –
CC(C)(C)NC[C@@H](O)c1ccc2ccccc2n1 [Compound 03-166] | – | 0.1 to 1 µM | – | 0.1 to 1 µM | – | – | – | –
CC(C)(C)NC[C@@H](O)c1cccc(C#N)n1 [Compound 03-48, (R)-6-(2-(tert-butylamino)-1-hydroxyethyl)picolinonitrile] | D (D < 6) | > 1 µM | – | > 1 µM | – | C-D | – | –
CC(C)(C)NC[C@H](O)c1cccc(N2CCCCC2)n1 [Compound 03-137] | – | 0.1 to 1 µM | < 0.01 µM | < 0.01 µM | 0.1 to 1 µM | – | – | –
CC(C)(C)NC[C@H](O)c1cccc(N2CC3CCCC3C2)n1 (some centres unmarked) [Compound 03-135] | C (C = <7-6) | 0.1 to 1 µM | < 0.01 µM | < 0.01 µM | – | – | – | –
CC(C)(C)NC[C@@H](O)c1cccc(-c2cccc(Cl)c2)n1 [Compound 03-130] | C (C = <7-6) | 0.1 to 1 µM | 0.01 to 0.1 µM | 0.01 to 0.1 µM | – | – | – | –
CC(C)(C)NC[C@@H](O)c1cccc(C(C)(F)F)n1 [Compound 03-170] | D (D < 6) | > 1 µM | 0.1 to 1 µM | 0.1 to 1 µM | – | – | – | –
CCN(CC)c1cccc([C@H](O)CNC(C)(C)C)n1 [Compound 03-160] | – | 0.1 to 1 µM | 0.1 to 1 µM | – | – | – | – | –
CC(C)(C)NC[C@@H](O)c1cccc(OC(C)(C)C)n1 [Compound 03-273] | – | – | 0.1 to 1 µM | – | > 1 µM | – | – | –
Cc1cccc(-c2cccc([C@@H](O)CNC(C)(C)C)n2)c1 [Compound 03-147] | – | 0.01 to 0.1 µM | < 0.01 µM | < 0.01 µM | 0.01 to 0.1 µM | – | – | –
CC(=O)Nc1cccc([C@H](O)CNC(C)(C)C)n1 [Compound 03-239] | – | – | 0.01 to 0.1 µM | – | 0.1 to 1 µM | – | – | –
CNC(=O)c1cccc([C@@H](O)CNC(C)(C)C)n1 [Compound 03-85] | – | – | 0.1 to 1 µM | – | > 1 µM | – | – | –
COc1ccc([C@@H](O)CNC(C)(C)C)c(C)n1 [Compound 03-259] | – | – | < 0.01 µM | – | 0.01 to 0.1 µM | – | – | –
CC(C)(C)NC[C@@H](O)c1cccc(NC2CCC2)n1 [Compound 03-229] | – | – | > 1 µM | – | > 1 µM | – | – | –
CC(C)(C)NC[C@H](O)c1cccc(-c2ccccc2F)n1 [Compound 03-155] | – | 0.01 to 0.1 µM | < 0.01 µM | < 0.01 µM | 0.01 to 0.1 µM | – | – | –
Cc1cc([C@H](O)CNC(C)(C)C)nc(C(F)(F)F)c1 [Compound 03-20] | – | > 1 µM | 0.1 to 1 µM | 0.1 to 1 µM | > 1 µM | – | – | –
CC(C)(C)NC[C@H](O)c1cccc(NCC(F)(F)F)n1 [Compound 03-266] | – | – | < 0.01 µM | – | < 0.01 µM | – | – | –

SMILES | Average pEC50 [Receptor subtype: B1-AR; Cell type: CHO-K1 (HitHunter)] (β1-adrenergic receptor; B1-AR, CHO-K1 (HitHunter)) | EC50 (β1-adrenergic receptor; [1]) | EC50 (β2 adrenergic receptor; [2]) | EC50 (β2 adrenergic receptor; [3]) | EC50 (β1-adrenergic receptor; [4]) | Average pEC50 [Receptor subtype: B2-AR; Cell type: CHO-K1 (HitHunter)] (β2 adrenergic receptor; B2-AR, CHO-K1 (HitHunter)) | EC50 (β1-adrenergic receptor; cAMP HTRF, read-out: β1 EC50) | EC50 (β2 adrenergic receptor; cAMP HTRF, read-out: β2 EC50)
CC(C)(C)NC[C@H](O)c1ncccc1C(F)(F)F [Compound 03-1, (S)-2-(tert-butylamino)-1-(3-(trifluoromethyl)pyridin-2-yl)ethan-1-ol] | – | – | – | – | – | – | > 1 µM | > 1 µM
CC(C)(C)NC[C@H](O)c1cccc(C2=NCCN2)n1 [Compound 03-86] | – | – | 0.1 to 1 µM | – | > 1 µM | – | – | –
CC(C)(C)NC[C@H](O)c1cccc(Cl)n1 [Compound 03-231] | – | – | 0.01 to 0.1 µM | – | > 1 µM | – | – | –
CC1(NC[C@H](O)c2cccc(C(F)(F)F)n2)CCOCC1 [Compound 03-23] | – | 0.1 to 1 µM | 0.1 to 1 µM | 0.1 to 1 µM | 0.1 to 1 µM | – | – | –
CC(C)(C)NC[C@H](O)c1cccnc1C(C)(F)F [Compound 03-83] | – | – | 0.1 to 1 µM | – | > 1 µM | – | – | –
CC(C)(C)NC[C@@H](O)c1cccc(-c2ccc[nH]2)n1 [Compound 03-244] | – | – | 0.01 to 0.1 µM | – | 0.1 to 1 µM | – | – | –
CC(C)(C)NC[C@@H](O)c1cccc(-c2ccncc2)n1 [Compound 03-220] | – | – | 0.01 to 0.1 µM | – | > 1 µM | – | – | –
Cc1ccc([C@@H](O)CNC(C)(C)C)c(C2CCCC2)n1 [Compound 03-65] | – | – | 0.01 to 0.1 µM | – | > 1 µM | – | – | –
O[C@@H](CNC1CCOCC1)c1cccc(C(F)(F)F)n1 [Compound 03-25] | D (D < 6) | > 1 µM | > 1 µM | > 1 µM | – | – | – | –
CN(C)c1cccc([C@H](O)CNC(C)(C)C)n1 [Compound 03-154] | – | > 1 µM | > 1 µM | > 1 µM | > 1 µM | – | – | –
CC(C)(C)NC[C@H](O)c1cccc(-c2cccc(Cl)c2)n1 [Compound 03-129] | B (B = 8-7) | 0.01 to 0.1 µM | < 0.01 µM | < 0.01 µM | – | – | – | –
Cn1ccc(-c2cccc([C@@H](O)CNC(C)(C)C)n2)n1 [Compound 03-216] | – | – | 0.01 to 0.1 µM | – | > 1 µM | – | – | –
[2H]C([2H])([2H])Nc1cccc([C@@H](O)CNC(C)(C)C)n1 [Compound 03-279] | – | – | 0.1 to 1 µM | – | > 1 µM | – | – | –
[2H]C([2H])([2H])C(NCC(O)c1cccnc1C)(C([2H])([2H])[2H])C([2H])([2H])[2H] (centres unmarked) [Compound 03-278] | – | – | < 0.01 µM | – | 0.1 to 1 µM | – | – | –
CC(C)c1ncccc1[C@@H](O)CNC(C)(C)C [Compound 03-51] | D (D < 6) | > 1 µM | > 1 µM | > 1 µM | – | – | – | –
CC(C)(COc1ccccc1)NC[C@@H](O)c1cccc(C(F)(F)F)n1 [Compound 03-185] | D (D < 6) | > 1 µM | > 1 µM | > 1 µM | – | – | – | –
CC(C)(C)NC[C@H](O)c1cccc(-n2ccnc2)n1 [Compound 03-213] | – | – | 0.01 to 0.1 µM | – | > 1 µM | – | – | –
CC(C)(C)NC[C@H](O)c1cccc(C(C)(C)CN)n1 [Compound 03-280] | – | – | > 1 µM | – | > 1 µM | – | – | –
O[C@H](CNC1Cc2ccccc2C1)c1cccc(C(F)(F)F)n1 [Compound 03-22] | – | > 1 µM | > 1 µM | > 1 µM | > 1 µM | – | – | –
